Results from paper PMC12036557, “Functional Imaging of CYP3A4 at Multiple Dimensions Using an AI‐Driven High Performance Fluorogenic Substrate” (Small (Weinheim an Der Bergstrasse, Germany), 2025).

Molecular target: T1, CYP3A4 (Homo sapiens, UniProt P08684)
Assay: NFa-based screening and characterizing of hCYP3A4 inhibitors in HLMs
Settings: human, human liver microsomes, pH 7.4, probe NFa (4-hydroxylation to 4-HNFa)

T1 sequence (P08684 whole entry): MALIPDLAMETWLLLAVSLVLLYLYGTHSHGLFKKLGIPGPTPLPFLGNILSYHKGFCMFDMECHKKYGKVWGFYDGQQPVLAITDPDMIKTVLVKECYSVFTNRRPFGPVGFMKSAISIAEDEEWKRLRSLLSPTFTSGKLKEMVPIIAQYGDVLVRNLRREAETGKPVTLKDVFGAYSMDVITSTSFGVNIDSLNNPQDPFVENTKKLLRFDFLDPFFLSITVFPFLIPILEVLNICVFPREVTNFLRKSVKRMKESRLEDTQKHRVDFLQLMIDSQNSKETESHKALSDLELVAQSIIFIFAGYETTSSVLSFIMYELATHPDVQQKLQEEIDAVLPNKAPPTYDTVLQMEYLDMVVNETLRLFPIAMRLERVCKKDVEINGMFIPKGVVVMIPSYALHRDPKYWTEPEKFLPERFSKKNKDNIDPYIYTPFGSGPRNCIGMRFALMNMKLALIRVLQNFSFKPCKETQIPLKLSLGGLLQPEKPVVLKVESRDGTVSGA

Row | SMILES | activity at 30 min, 1 µM [%]
1 | Nc1cccc2c1C(=O)c1ccccc1C2=O [1-Aminoanthraquinone] | 62.6
2 | Oc1ccc(/C=C/c2cc(O)cc(O)c2)cc1 [Resveratrol] | 72.1
3 | COc1cc(O)c(CC=C(C)C)c(O)c1C(=O)/C=C/c1ccc(O)cc1 [Xanthohumol] | 59.9
4 | COc1c(O)cc2occ(-c3ccc(O)cc3)c(=O)c2c1O [Tectorigenin] | 95.5
5 | COc1c(OC)c2occc2c2oc(=O)ccc12 [Pimpinellin] | 103
6 | COc1ccc(-c2coc3cc(O)ccc3c2=O)cc1O [Calycosin] | 99.3
7 | COc1ccc(C(=O)/C=C/c2ccc3nc(Cl)ccc3c2)c(O)c1 [D17, (E)-3-(2-chloroquinolin-6-yl)-1-(2-hydroxy-4-methoxyphenyl)prop-2-en-1-one] | 83.6
8 | O=c1cc(-c2ccccc2)oc2c(O)c(O)cc(O)c12 [Norwogonin] | 85.3
9 | O=C1c2cccc(Cl)c2C(=O)c2c(Cl)cccc21 [1,8-Dichloroanthraquinone] | 85.5
10 | COc1cc(O)c(C(=O)/C=C/c2ccc3nccnc3c2)c(OC)c1 [D18, (E)-1-(2-hydroxy-4,6-dimethoxyphenyl)-3-(quinoxalin-6-yl)prop-2-en-1-one] | 54
11 | CC(C)=CCc1cc2c(cc1O)O[C@H](c1ccc(O)cc1)CC2=O [Bavachin] | 71.6
12 | COc1cc(O)c(C(=O)/C=C/c2ccc3ccccc3c2)c(OC)c1OC [D9, (E)-1-(6-hydroxy-2,3,4-trimethoxyphenyl)-3-(naphthalen-2-yl)prop-2-en-1-one] | 85
13 | COc1cccc(C(=O)/C=C/c2ccc3nccnc3c2)c1 [D14, (E)-1-(3-methoxyphenyl)-3-(quinoxalin-6-yl)prop-2-en-1-one] | 63.9
14 | O=C(O)c1ccc2c(c1)C(=O)c1ccccc1C2=O [Anthraquinone-2-carboxylic acid] | 98
15 | O=C1c2ccc(Br)cc2C(=O)c2ccc(Br)cc21 [2,6-Dibromoanthraquinone] | 85.5
16 | COc1cccc(O)c1C(=O)/C=C/c1ccc2nc(Cl)ccc2c1 [D16, (E)-3-(2-chloroquinolin-6-yl)-1-(2-hydroxy-6-methoxyphenyl)prop-2-en-1-one] | 100
17 | CCc1ccc2c(c1)C(=O)c1ccccc1C2=O [2-Ethyl anthraquinone] | 79.8
18 | O=C(/C=C/c1ccc2ccccc2c1)c1ccccc1O [D8, (E)-1-(2-hydroxyphenyl)-3-(naphthalen-2-yl)prop-2-en-1-one] | 88
19 | Cc1c(O)c(C)c2c(c1O)C(=O)C[C@@H](c1ccc(O)cc1)O2 [Farrerol] | 73.5
20 | COc1cc(O)c(C(=O)/C=C/c2ccc3ncccc3c2)c(OC)c1OC [D12, (E)-1-(6-hydroxy-2,3,4-trimethoxyphenyl)-3-(quinolin-6-yl)prop-2-en-1-one] | 70
21 | O=C(CCc1ccc(O)cc1)c1c(O)cc(O)cc1O [Phloretin] | 97.3
22 | O=c1c(O)c(-c2ccccc2)oc2cc(O)cc(O)c12 [Galangin] | 94
23 | COc1ccc(-c2coc3cc(O)ccc3c2=O)cc1 [Formononetin] | 98.9
24 | COc1ccccc1C(=O)/C=C/c1ccc2ccccc2c1 [D7, (E)-1-(2-methoxyphenyl)-3-(naphthalen-2-yl)prop-2-en-1-one] | 95.7

Row | SMILES | activity at 30 min, 1 µM [%]
25 | COc1ccc(/C=C2\Cc3cc(OC)c(OC)cc3C2=O)cc1 [D6, (E)-5,6-Dimethoxy-2-(4-methoxybenzylidene)-2,3-dihydro-1H-inden-1-one] | 67.8
26 | CC(C)=CCc1c(O)ccc(C(=O)/C=C/c2ccc(O)cc2)c1O [Isobavachalcone] | 54.2
27 | COc1cc2c(cc1OC)C(=O)/C(=C/c1cccc(C)c1)C2 [D5, (E)-5,6-dimethoxy-2-(3-methylbenzylidene)-2,3-dihydro-1H-inden-1-one] | 72.3
28 | COc1cc2c(cc1OC)[C@@H](Cc1ccc(Oc3cc(C[C@@H]4c5cc(OC)c(OC)cc5CCN4C)ccc3O)cc1)N(C)CC2 [Dauricine] | 92.8
29 | O=C(O)c1ccc(O)c(O)c1 [Protocatechuic acid] | 109
30 | COc1cc(C[C@H]2C(=O)OC[C@@H]2Cc2ccc(OC)c(OC)c2)ccc1O [Arctigenin] | 103
31 | COc1cc2c(=O)c(-c3ccc(O)cc3)coc2cc1O [Glycitein] | 104
32 | C[C@H]1[C@H](C)CC[C@]2(C(=O)O)CC[C@]3(C)C(=CC[C@@H]4[C@@]5(C)CC[C@H](O)C(C)(C)[C@@H]5CC[C@]43C)[C@H]12 [Ursolic acid] | 99.3
33 | COc1cc(O)cc2c1C(=O)C[C@@H](c1ccccc1)O2 [Alpinetin] | 95.7
34 | COc1ccc(-c2cc(=O)c3c(O)cc(O)cc3o2)cc1 [Acacetin] | 49.9
35 | COc1cc2c(cc1OC)C(=O)/C(=C/c1ccc(-c3ccccc3)cc1)C2 [D3, (E)-2-([1,1'-Biphenyl]-4-ylmethylene)-5,6-dimethoxy-2,3-dihydro-1H-inden-1-one] | 75.9
36 | O=c1c(O)c(-c2ccc(O)cc2)oc2cc(O)cc(O)c12 [Kaempferol] | 67.9
37 | O=C1c2cccc(O)c2C(=O)c2cccc(O)c21 [1,5-Dihydroxyanthraquinone] | 99.8
38 | COc1cc2c(cc1OC)C(=O)/C(=C/c1ccco1)C2 [D2, (E)-2-(Furan-2-ylmethylene)-5,6-dimethoxy-2,3-dihydro-1H-inden-1-one] | 102
39 | O=C1c2ccccc2C(=O)c2c(O)cccc21 [1-Hydroxy anthraquinone] | 90.5
40 | O=C1c2ccc(O)cc2C(=O)c2ccc(O)cc21 [2,6-Dihydroxyanthraquinone] | 88.8
41 | O=c1c(O)c(-c2ccc(O)cc2)oc2c(O)c(O)cc(O)c12 [Herbacetin] | 91.1
42 | O=C(/C=C/c1ccc2nccnc2c1)c1ccccc1O [D15, (E)-1-(2-hydroxyphenyl)-3-(quinoxalin-6-yl)prop-2-en-1-one] | 64.5
43 | CC1(C)[C@@H](O)CC[C@]2(C)[C@H]3C(=O)C=C4[C@@H]5C[C@@](C)(C(=O)O)CC[C@]5(C)CC[C@@]4(C)[C@]3(C)CC[C@@H]12 [Glycyrrhetinic acid] | 66.9
44 | COc1cc(O)ccc1/C=C/C(=O)c1ccc(O)cc1 [Echinatin] | 47.6
45 | CC(C)=CCc1cc(-c2coc3cc(O)ccc3c2=O)ccc1O [Neobavaisoflavone] | 87.9
46 | COc1cc2c(cc1OC)C(=O)/C(=C/c1ccccc1C)C2 [D4, (E)-5,6-Dimethoxy-2-(2-methylbenzylidene)-2,3-dihydro-1H-inden-1-one] | 58.1
47 | Cc1ccc2c(c1)C(=O)c1ccccc1C2=O [2-Methyl anthraquinone] | 83.6

Molecular target: T1, CYP3A4
Assay: in vitro
Settings: pH 7.4

Row | SMILES | activity at 1 µM [%] | activity at 30 min, 1 µM [%]
48 | O[C@H]1[C@H]2c3cc4c(cc3CN3CCC(=C[C@@H]1O)[C@H]23)OCO4 [Lycorine] | 92.1 | –
49 | COc1ccc2cc1Oc1ccc(cc1)C[C@H]1c3cc(c(OC)cc3CCN1C)Oc1c(OC)c(OC)cc3c1[C@H](C2)N(C)CC3 [Tetrandrine] | – | 95.2
50 | COc1ccc([C@@H]2CC(=O)c3c(O)cc(O)cc3O2)cc1O [Hesperetin] | – | 96.8
51 | CC[C@@]1(O)C(=O)OCc2c1cc1n(c2=O)Cc2cc3ccccc3nc2-1 [Camptothecin] | – | 93.8
52 | COc1ccc2c(c1)[nH]c1c(C)nccc12 [Harmine] | 101 | –
53 | COc1ccc(-c2cc(=O)c3c(O)c(OC)c(O)cc3o2)cc1 [Pectolinarigenin] | – | 98
54 | C=C1[C@H]2C[C@@]3([C@@H]1O)[C@@H](CC2=O)[C@]12[C@@H]4C[C@H]3[C@H]1N(CC)C[C@]4(C)CC[C@@H]2O [Songorine] | 104 | –
55 | C=CCc1ccc(O)c(-c2cc(CC=C)ccc2O)c1 [Magnolol] | 106 | –
56 | CCN1C[C@]2(COC)[C@H](O)C[C@H](OC)[C@@]34[C@@H]5C[C@@]6(O)[C@H](OC(=O)c7ccccc7)[C@@H]5[C@@](OC(C)=O)([C@@H]([C@H](OC)[C@H]23)[C@@H]14)[C@@H](O)[C@@H]6OC [Aconitine] | – | 94.8
57 | O=c1c(-c2ccc(O)cc2)coc2cc(O)ccc12 [Daidzein] | – | 97.4
58 | O=C1C=CC[C@@H]2[C@H]3CCC[N+]4([O-])CCC[C@@H](CN12)[C@@H]34 (stereo partly drawn) [Oxysophocarpine] | 96.1 | –
59 | COc1cc(C2Oc3cc([C@H]4Oc5cc(O)cc(O)c5C(=O)[C@@H]4O)ccc3OC2CO)ccc1O (stereo partly drawn) [Silybin] | – | 89
60 | O=C1C[C@@H]2OCC=C3CN4CC[C@]56c7ccccc7N1[C@H]5[C@H]2[C@H]3C[C@H]46 [Strychnine] | – | 96.3
61 | COc1cc2c(cc1OC)C(=O)/C(=C/c1ccccc1)C2 [D1, (E)-2-benzylidene-5,6-dimethoxy-2,3-dihydro-1H-inden-1-one] | 88 | –
62 | CN1[C@@H]2C[C@@H](OC(=O)[C@H](CO)c3ccccc3)C[C@H]1[C@@H]1O[C@@H]12 [Scopolamine] | 98.8 | –
63 | O=c1cccc2n1C[C@@H]1CNC[C@H]2C1 [Cytisine] | 94.1 | –
64 | O=C1C=CC[C@@H]2[C@H]3CCCN4CCC[C@@H](CN12)[C@@H]34 [Sophocarpine] | – | 94.1
65 | O=C1c2ccccc2C(=O)c2ccccc21 [Anthraquinone] | – | 94.3
66 | COc1ccc(-c2oc3c(CC=C(C)C)c(O)cc(O)c3c(=O)c2O)cc1 [Icaritin] | – | 90.1
67 | COc1ccc2c(c[n+](C)c3c4cc5c(cc4ccc23)OCO5)c1OC [Chelerythrine] | 89.6 | –
68 | CC1(C)CC[C@]2(C(=O)O)CC[C@]3(C)C(=CC[C@@H]4[C@@]5(C)CC[C@H](O)C(C)(C)[C@@H]5CC[C@]43C)[C@@H]2C1 [Oleanolic acid] | 70.2 | –
69 | COc1ccc(-c2cc(=O)c3c(OC)c(OC)c(OC)c(OC)c3o2)cc1OC [Nobiletin] | – | 102
